Laboratory results: patent publication US20230016479A1, “METHOD FOR PREPARING MESENCHYMAL STEM CELLS HAVING IMPROVED VIABILITY THROUGH ANTI-CANCER VIRUS INTRODUCTION” (priority 2019, published 2023)

System: ViroSTEM (mesenchymal stem cells into which measles virus has been introduced)
Assay: Viability of ViroSTEM cold-stored in 30% autologous serum-containing physiological saline treated with aspirin
Assay type: cell-based, human
Experimental: While ViroSTEM, which is mesenchymal stem cells into which measles virus has been introduced, was cold-stored in physiological saline containing aspirin and 30% autologous serum for 5 days, it was treated with aspirin at a concentration of 10 μg/ml to 100 μg/ml.
The period of time during which ViroSTEM cold-stored in physiological saline containing 50 μg/ml aspirin and 30% autologous serum was maintained as described above increased to 80 hours, indicating the stability of the virus in ViroSTEM cold-stored for 80 hours. After cold storage of ViroSTEM for 80 hours, the stem cells were cultured and then observed under a fluorescence microscope.

What does the source list for `CC(=O)Oc1ccccc1C(=O)O` [aspirin]?
viability at 50 µg/mL (Homo sapiens, Mesenchymal stem cells, 72 h, aspirin 50 μg/ml, cold storage 3 days in physiological saline containing 30% autologous serum, without aspirin about 28.6%, read-out: cell viability of measles virus-infected stem cell therapeutic agent): ≥ 88%; most effective concentration of aspirin (tested 10 μg/ml to 100 μg/ml in vehicle containing autologous serum): 50 µg/mL
